Assay results as given in PMC9794608 (Frontiers in Veterinary Science, 2022).

System: laboratory beagle dogs
Assay: Repeat dose tolerability: clinical observations, hematology, serum chemistry, coagulation, urinalysis
Type: in vivo
Experimental: Laboratory Beagle dogs (Charles River Labs, Mattawan, MI) served as surrogates in testing compounds proposed for application in canine clinical cancer care. The animals were at least six months old and weighed 6.4–8.8 kg at the initiation of study. They had routine veterinary care and had not been used in any previous studies. The study was conducted in AAALAC-accredited animal facilities [Charles River Laboratories, Inc., Mattawan, MI; NIH Office of Laboratory Animal Welfare Assurance approval (https://olaw.nih.gov/assured/app/index.html)], under review, monitoring, and approval of the facility's Institutional Animal Care and Use Committee according to U.S. Public Health Service national guidelines and regulations for the care and use of laboratory animals. The study was not designed to incorporate Good Laboratory Practices (GLP) regulatory criteria. Animals on study were monitored daily or more frequently and body weights were recorded, while periodic specimens were obtained for laboratory analyses. Clinical pathology analyses were included for hematology, serum chemistry, coagulation, urinalysis, and chemical bioanalysis was accomplished for pharmacokinetics (PK) (Table 1, repeat dose study) (Charles River Laboratories, Mattawan, MI).
Six male and six female beagle dogs were enrolled in a parallel, three-arm, fixed, repeat oral-dose study. […] All dogs were dosed on study day 1 to obtain single dose PK samples, and then dosed serially days 4–20. Dogs were fasted overnight prior to dosing and fed ad libitum 2 h (hrs) following dose administration.
On days 10 and 15, a 2-h post-dose sample was collected. […] Treatment schedule and clinical pathology specimen sampling intervals are outlined in Table 1. […]
Sampling for hematology, serum chemistry, coagulation and urinalysis was conducted to facilitate monitoring treatment effects over various time points, and values obtained were compared to pre-treatment measurements for each subject (Table 1).

Q: How did the “Serum ALT, times pre-study” value (Day 20, one female dog (23502), considered unlikely to be inhibitor related) turn out when `CC(C)n1nc(-c2ccc3oc(N)nc3c2)c2c(N)ncnc21` [Sapanisertib] was run?
A: 2.10 x

Q: And the “Dogs with minimal to marked increases in urine protein concentration” value (Day 25, greater than pre-study values, 4 dogs per group)?
A: three of four

Q: And the “Urine protein concentration, highest value (up to)” value (Day 25, semi-quantitatively by urine dipstick)?
A: ≥ 1,000 mg/dL

Q: And the “Urine glucose (up to)” value (Day 25, semi-quantitatively by urine dipstick, individuals of both sexes)?
A: up to 250 mg/dL

Q: And the “Urine pH (up to)” value (Day 25, Group 2 males and both sexes in Group 3)?
A: ≥ 9.0 pH

Q: What about the “Activated partial thromboplastin time (APTT) prolonged, times pretreatment (up to)” value (Days 6, 11, 15, 22, and/or 25, individual dogs, within normal reference range) of the same molecule?
A: up to 1.21 x

Q: What about the “Serum phosphorus concentrations, times pre-study (as low as)” value (Days 7 and 20, both sexes in all groups) of the same molecule?
A: ≥ 0.74 x

Q: And the “Cholesterol concentrations, times pre-study (up to)” value (Days 7 and 20, both sexes in Group 2 and males in Group 3)?
A: up to 1.50 x

Q: And the “Group mean APTT versus dogs given trametinib alone” value (at 11 days and thereafter, p < 0.05)?
A: significantly different

Q: What about the “Prothrombin time (PT) assays” value (compared to pretreatment samples) of the same molecule?
A: No analogous effect

Q: What about the “Blood neutrophils, times individual pre-study values” (one male (23002) and one female (23501), Group 2, days 20 and 25, up to) of the same molecule?
A: up to 1.95 x

Q: What about the “Individual animal fibrinogen concentration, times pretreatment (up to)” value (various time points, most pronounced in Group 3) of the same molecule?
A: up to 2.61 x
